Assay results reported in US7598234B2, “Steroid derived antibiotics” (Brigham Young University, priority 1998, dated 2009).
≈ marks a conversion by molar mass, not a printed value.

Columns and labels:
[1] = system: Enterococcus faecalis ATCC 29212; assay: MIC and MBC measurement with Enterococcus faecalis ATCC 29212; type: cell-based; details: Table 10
Source text: (§1) General: Microorganisms. Reference strains were purchased from the American Type Culture Collection (Rockville, Md.) or Bactrol disks from Difeo Laboratories (Detroit, Mich.). The following specific ATCC strains were used: 10798 Escherichia coli, 25922 Escherichia coli, 13883 Klebsiella pneumoniae, 27853 Pseudomonas aeruginosa, 14028 Salmonella typhimurium, 29212 Enterococcus faecalis, 25923 Staphylococcus aureus, 19615 Streptococcus pyogenes, and 90028 Candida albicans. Bacterial strains were maintained on Mueller-Hinton agar plates, and Candida albicans was maintained on Sabouraud Dextrose agar plates.
(§2) Tryptic soy broth (TSB) was made by dissolving 27.5 grams of tryptic soy broth without dextrose (DIFCO Laboratories) in 1 liter of deionized water and sterilizing at 121° C. for 15 minutes. Solid agar (TSA) plates were made by dissolving 6.4 grams of tryptic soy broth and 12 grams of agar (purified grade, Fischer Scientific) in 800 mL of deionized water and sterilizing at 121° C. for 20 minutes. Aliquots (20 mL) of the homogeneous solution were then poured in sterile plastic petri dishes (100×15 mm, Fisher Scientific). Solutions of compounds were made by dissolving the HCl salt of the respective compound into an appropriate amount of deionized and sterilized water followed by microfiltration.
(§3) Aliquots of 1 mL of the suspension were added to test tubes containing 1 mL TSB and incrementally varied concentrations of cholic acid derivatives and/or erythromycin or novobiocin. In the sensitization experiments, erythromycin or novobiocin were added 15 minutes later than the cholic acid derivatives. The samples were subjected to stationary incubation at 37° C. for 24 hours. Sample turbidity was determined by measuring absorption at 760 nm (HP 8453 UV-Visible Chemstation, Hewlett Packard). Additionally, an alliquot from each of the samples showing no measurable turbidity was subcultured on TSA plates (alliquots were diluted to provide fewer than 300 CFU). Colonies that grew on the subculture after overnight incubation were counted and the number of CFU/mL in the samples were calculated. The calculated values were compared to the number of CFU/mL in the original inoculum.

[2] = system: Streptococcus pyrogenes ATCC 19615; assay: MIC and MBC measurement with Streptococcus pyogenes ATCC 19615; type: cell-based; details: Table 10
Source text: as §1, §2, §3

[3] = system: Pseudomonas aeruginosa (ATCC 27853); assay: MIC and MBC measurement with Pseudomonas aeruginosa (ATCC 27853); type: cell-based
Outline: (§4)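 Broth macrodilution, TSB, 37° C./24 h stationary; MIC by absence of A760 turbidity, MBC by TSA subculture CFU/mL against starting inoculum.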

E. coli (ATCC 10798) [4] = assay: Sensitization to erythromycin (concentration lowering the MIC of erythromycin), E. coli (ATCC 10798); type: cell-based, Escherichia coli; details: for (a) Concentration required to lower the MIC of erythromycin from 70 to 1 μg/mL / (b) MBC with 1 μg/mL erythromycin / FIC values with erythromycin: Table 9, Escherichia coli (ATCC 10798); for MIC: concentration required to lower the MIC of erythromycin from 70 μg/mL to 1 μg/mL / MBC (with erythromycin): Table 2, E. coli (ATCC 10798); for MBC (with erythromycin): erythromycin sensitization
[5] = system: Klebsiella pneumonia ATCC 13883; assay: Growth inhibition and FIC with novobiocin, Klebsiella pneumoniae ATCC 13883; type: cell-based; details: Table 12, novobiocin (by order) at 0.5, 1.0 or 3.0 μg/mL
Procedure: (§5) Alternatively, “fractional inhibitory concentration (FIC)” is also useful for determination of synergy between the compounds of the invention, or the compounds in combination with known antibiotics. FICs can be performed by checkerboard titrations of compounds in one dimension of a microtiter plate, and of antibiotics in the other dimension, for example. The FIC is calculated by looking at the impact of one antibiotic on the MIC of the other and vice versa. […] Preferably, an FIC of less than 0.5 is obtained for synergism. As used herein, FIC can be determined as follows:
as §3
(§6) To measure permeabilization, the FIC values for compounds 1, 2, 5, 106, 10, 112, 133, and 134 with erythromycin, novobiocin, and rifampicin were determined. Concentrations of 0.5, 1.0 or 3.0 μg/mL of these antibiotics were used, and the concentrations of the cholic acid derivatives required to inhibit bacterial growth of Gram-negative strains were determined.

[6] = system: Klebsiella pneumonia ATCC 13883; assay: MIC and MBC measurement with Klebsiella pneumoniae ATCC 13883; type: cell-based; details: Table 10
Outline: as §4

[7] = system: Pseudomonas aeruginosa (ATCC 27853); assay: Sensitization to erythromycin, Pseudomonas aeruginosa (ATCC 27853); type: cell-based; details: for FIC / concentration required to inhibit bacterial growth with antibiotic: Table 11, Pseudomonas aeruginosa ATCC 27853; for FIC: erythromycin (by order); for concentration required to inhibit bacterial growth with antibiotic: erythromycin (by order) at 0.5, 1.0 or 3.0 μg/mL; for MIC: concentration required to lower the MIC of erythromycin from 240 μg/mL to 5 μg/mL / MBC (with erythromycin): Table 7, P. aureginosa (ATCC 27853); for MBC (with erythromycin): erythromycin sensitization
Outline: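 Sensitization measured by the cholic acid derivative concentration inhibiting growth when combined with 0.5, 1.0 or 3.0 μg/mL erythromycin or novobiocin, antibiotic added 15 min after derivative. Incubation 24 h at 37 °C without shaking in TSB; growth by absorbance at 760 nm with CFU plating of non-turbid tubes; synergy expressed as FIC.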

[8] = Procedure: Minimum inhibition concentrations (MIC) and minimum hemolytic concentrations (MHC) were measured as described in Li et al., Antimicrob. Agents. Chemother., 1999, 43, 1347.
E. coli (ATCC 10798) [9] = assay: MIC and MBC measurement with E. coli (ATCC 10798); type: cell-based, Escherichia coli
Outline: as §4

E. coli (ATCC 25922) = assay: Sensitization to erythromycin, E. coli (ATCC 25922); type: cell-based, Escherichia coli; details: for FIC / concentration required to inhibit bacterial growth with antibiotic: Table 11, Escherichia coli ATCC 25922; for FIC: erythromycin (by order); for concentration required to inhibit bacterial growth with antibiotic: erythromycin (by order) at 0.5, 1.0 or 3.0 μg/mL; for MIC: concentration required to lower the MIC of erythromycin from 60 μg/mL to 1 μg/mL / MBC (with erythromycin): Table 5, E. coli (ATCC 25922); for MBC (with erythromycin): erythromycin sensitization
Outline: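 Bacteria grown in TSB with varied cholic acid derivative concentrations; erythromycin (0.5, 1.0 or 3.0 μg/mL) added 15 min later; stationary incubation 37° C, 24 h. Growth read as absorbance at 760 nm, with clear samples subcultured on TSA for CFU/mL; derivative concentration inhibiting growth determined.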

[10] = system: Escherichia coli ATCC 25922; assay: Growth inhibition and FIC with rifampicin, Escherichia coli ATCC 25922; type: cell-based; details: for FIC: Table 13, rifampicin (by order); for concentration required to inhibit bacterial growth with antibiotic: Table 13, rifampicin (by order) at 0.5, 1.0 or 3.0 μg/mL
Procedure: as §5, §3, §6

[11] = Table 10, Pseudomonas aeruginosa ATCC 27853
[12] = Table 9, Escherichia coli (ATCC 10798)
[13] = Table 6, P. aureginosa (ATCC 27853)

Row | Structure (SMILES) | MBC [1] | MIC [1] | MBC [2] | MIC [2] | MBC [3, 11] | MIC [3, 11] | (a) Concentration required to lower the MIC of erythromycin from 70 to 1 μg/mL (E. coli (ATCC 10798) [4]) | (b) MBC with 1 μg/mL erythromycin (E. coli (ATCC 10798) [4]) | FIC values with erythromycin (E. coli (ATCC 10798) [4]) | concentration required to inhibit bacterial growth with antibiotic [5] | MBC [6] | MIC [6] | FIC [7] | concentration required to inhibit bacterial growth with antibiotic [7] | MHC [8] | MBC (E. coli (ATCC 10798) [9]; [12]) | FIC (E. coli (ATCC 25922)) | concentration required to inhibit bacterial growth with antibiotic (E. coli (ATCC 25922)) | FIC [10] | concentration required to inhibit bacterial growth with antibiotic [10] | further results
1 | C[C@]12CC[C@@H](OCCCN)C[C@H]1C[C@@H](OCCCN)[C@@H]1[C@@H]2C[C@H](OCCCN)[C@]2(C)[C@@H](O)CC[C@@H]12 [Compound 106] | >100 µg/mL | 12 µg/mL (≈ 24.2 µM) | 37 µg/mL (≈ 74.6 µM) | 18 µg/mL (≈ 36.3 µM) | 97 µg/mL (≈ 196 µM) | 85 µg/mL (≈ 171 µM) | 30 µg/mL | 160 µg/mL | 0.23 | 8.9 µg/mL | 100 µg/mL (≈ 202 µM) | >100 µg/mL | 0.22 | 16 µg/mL | >100 µg/mL | >200 µg/mL | 0.073 | 3.2 µg/mL | 0.12 | 4.2 µg/mL | MIC (E. coli (ATCC 10798) [9]; [12]): 140 µg/mL (≈ 282 µM)
2 | C[C@H](CCCN(C)Cc1ccccc1)[C@H]1CC[C@H]2[C@@H]3[C@H](OCCCN)C[C@@H]4C[C@H](OCCCN)CC[C@]4(C)[C@H]3C[C@H](OCCCN)[C@]12C [Compound 2] | 19 µg/mL (≈ 28.4 µM) | 3.4 µg/mL (≈ 5.08 µM) | 2.3 µg/mL (≈ 3.44 µM) | 2.0 µg/mL (≈ 2.99 µM) | >17 µg/mL | 11 µg/mL (≈ 16.4 µM) |  |  |  | 0.49 µg/mL | 17 µg/mL (≈ 25.4 µM) | 14 µg/mL (≈ 20.9 µM) | 0.25 | 2.4 µg/mL | 58 µg/mL |  | 0.078 | 0.23 µg/mL | 0.22 | 0.80 µg/mL | MBC [3, 13]: 40 µg/mL (≈ 59.8 µM); MIC [3, 13]: 9 µg/mL (≈ 13.5 µM); MIC: concentration required to lower the MIC of erythromycin from 70 μg/mL to 1 μg/mL (E. coli (ATCC 10798) [4]): 1 µg/mL; MBC (with erythromycin) (E. coli (ATCC 10798) [4]): 10 µg/mL; MIC: concentration required to lower the MIC of erythromycin from 240 μg/mL to 5 μg/mL [7]: 4 µg/mL; MBC (with erythromycin) [7]: 25 µg/mL; MBC (E. coli (ATCC 10798) [9]; Table 1, E. coli (ATCC 10798)): 16 µg/mL (≈ 23.9 µM); MIC (E. coli (ATCC 10798) [9]; Table 1, E. coli (ATCC 10798)): 7 µg/mL (≈ 10.5 µM); MIC: concentration required to lower the MIC of erythromycin from 60 μg/mL to 1 μg/mL (E. coli (ATCC 25922)): 1 µg/mL; MBC (with erythromycin) (E. coli (ATCC 25922)): 5 µg/mL
3 | C[C@H](CCCN(C)Cc1ccccc1)[C@H]1CC[C@H]2[C@@H]3[C@H](OCCN)C[C@@H]4C[C@H](OCCN)CC[C@]4(C)[C@H]3C[C@H](OCCN)[C@]12C [Compound 1] | 50 µg/mL (≈ 79.7 µM) | 4.9 µg/mL (≈ 7.82 µM) | 4.4 µg/mL (≈ 7.02 µM) | 3.0 µg/mL (≈ 4.78 µM) | 38 µg/mL (≈ 60.6 µM) | 26 µg/mL (≈ 41.5 µM) |  |  |  | 4.7 µg/mL | >36 µg/mL | 24 µg/mL (≈ 38.3 µM) | 0.29 | 6.6 µg/mL | 78 µg/mL |  | 0.15 | 2.5 µg/mL | 0.099 | 0.74 µg/mL | MBC [3, 13]: >50 µg/mL; MIC [3, 13]: 15 µg/mL (≈ 23.9 µM); MIC: concentration required to lower the MIC of erythromycin from 70 μg/mL to 1 μg/mL (E. coli (ATCC 10798) [4]): 2 µg/mL; MBC (with erythromycin) (E. coli (ATCC 10798) [4]): 20 µg/mL; MIC: concentration required to lower the MIC of erythromycin from 240 μg/mL to 5 μg/mL [7]: 8 µg/mL; MBC (with erythromycin) [7]: 45 µg/mL; MBC (E. coli (ATCC 10798) [9]; Table 1, E. coli (ATCC 10798)): 34 µg/mL (≈ 54.2 µM); MIC (E. coli (ATCC 10798) [9]; Table 1, E. coli (ATCC 10798)): 20 µg/mL (≈ 31.9 µM); MIC: concentration required to lower the MIC of erythromycin from 60 μg/mL to 1 μg/mL (E. coli (ATCC 25922)): 2 µg/mL; MBC (with erythromycin) (E. coli (ATCC 25922)): 14 µg/mL
4 | CCCOCCC[C@@H](C)[C@H]1CC[C@H]2[C@@H]3[C@H](OCCCN)C[C@@H]4C[C@H](OCCCN)CC[C@]4(C)[C@H]3C[C@H](OCCCN)[C@]12C [Compound 112] | 4.7 µg/mL (≈ 7.73 µM) | 3.1 µg/mL (≈ 5.1 µM) | 3.0 µg/mL (≈ 4.93 µM) | 2.4 µg/mL (≈ 3.95 µM) | 6.4 µg/mL (≈ 10.5 µM) | 4.6 µg/mL (≈ 7.57 µM) | 0.4 µg/mL | 4.0 µg/mL | 0.048 | 0.19 µg/mL | 27 µg/mL (≈ 44.4 µM) | 23 µg/mL (≈ 37.8 µM) | 0.59 | 1.0 µg/mL | 5.9 µg/mL | 17 µg/mL (≈ 28 µM) | 0.12 | 0.59 µg/mL | 0.19 | 0.81 µg/mL | MIC (E. coli (ATCC 10798) [9]; [12]): 12 µg/mL (≈ 19.7 µM)
